Source: patent US8415342B2, “Besifloxacin ophthalmic composition for the treatment or control of infection” (Bausch & Lomb Incorporated, priority 2008, dated 2013)
Converted amounts (≈) assume the structure as drawn.

Legend:
Experiment in all cases: MIC against defined topoisomerase mutants
Format in all cases: cell-based
[1] = tested on: E. coli topoisomerase mutants; settings: Escherichia coli
Procedure: Furthermore, an experiment was conducted to assess the mechanism of action of besifloxacin in S. pneumoniae, S. aureus, and E. coli via step selections for isolates with decreased susceptibility to besifloxacin, as well as by testing for altered susceptibilities of ciprofloxacin-resistant variants of all three species containing genetically defined mutations in the quinolone resistance determining regions (QRDRs) of structural genes encoding DNA gyrase and topoisomerase IV (Table 2).

[2] = tested on: S. aureus topoisomerase mutants; settings: Staphylococcus aureus
[3] = tested on: S. pneumoniae topoisomerase mutants; settings: Streptococcus pneumoniae

Work on `O=C(O)c1cn(C2CC2)c2cc(N3CCNCC3)c(F)cc2c1=O` [Ciprofloxacin] yielded an MIC ([1]; E. coli Wild type) of 0.008 µg/mL (≈ 0.0241 µM), an MIC ([1]; E. coli gyrA D87Y (or S83L)) of 0.12 µg/mL (≈ 0.362 µM) and an MIC ([1]; E. coli gyrA S83L + parC S80R) of 4 µg/mL. It also gave an MIC ([1]; E. coli gyrA S83L + parE H445L) of 0.12 µg/mL, an MIC ([1]; E. coli gyrB D426N) of 0.03 µg/mL (≈ 0.0905 µM) and an MIC ([2]; S. aureus Wild type) of 1 µg/mL (≈ 3.02 µM). For the same compound, the MIC ([2]; S. aureus parC S80F + gyrA S84L) was 64 µg/mL, the MIC ([3]; S. pneumoniae parC S79Y) was 8 µg/mL (≈ 24.1 µM) and the MIC ([3]; S. pneumoniae parC S79Y + gyrA S81F) was 64 µg/mL.
